Measurements as given in US11634393B2, “Substituted tolyl fungicides” (FMC CORPORATION, priority 2018, dated 2023).

Legend:
[1] = test system: Phakopsora pachyrhizi; test: Test D: Asian soybean rust, spray on soybean seedlings, disease control rating; type: in vivo; details: Rate 10 ppm, 100 = 100% disease control, 0 = no disease control relative to the controls; for pest or weed control at 10 ppm: Phakopsora pachyrhizi, 216 h
Source text: (§1) General protocol for preparing test suspensions for Tests A-F: the test compounds were first dissolved in acetone in an amount equal to 3% of the final volume and then suspended at the desired concentration (in ppm) in acetone and purified water (50/50 mix by volume) containing 250 ppm of the surfactant PEG400 (polyhydric alcohol esters). The resulting test suspensions were then used in Tests A-F.
The test solution was sprayed to the point of run-off on soybean seedlings. The following day the seedlings were inoculated with a spore suspension of Phakopsora pachyrhizi (the causal agent of Asian soybean rust) and incubated in a saturated atmosphere at 22° C. for 24 h and then moved to a growth chamber at 22° C. for 8 days, after which time visual disease ratings were made.
(§2) A rating of 100 indicates 100% disease control and a rating of 0 indicates no disease control (relative to the controls). A dash (-) indicates the compound was not tested.

[2] = test system: Puccinia recondita f. sp. tritici; test: Test B: wheat leaf rust, spray on wheat seedlings, disease control rating; type: in vivo; details: Rate 10 ppm, 100 = 100% disease control, 0 = no disease control relative to the controls; for pest or weed control at 10 ppm: Puccinia recondita, 192 h
Source text: as §1
The test solution was sprayed to the point of run-off on wheat seedlings. The following day the seedlings were inoculated with a spore suspension of Puccinia recondita f. sp. tritici (the causal agent of wheat leaf rust) and incubated in a saturated atmosphere at 20° C. for 24 h, and then moved to a growth chamber at 20° C. for 7 days, after which time disease ratings were made.
as §2

Work on `COC(=O)NCc1cc(-c2ccn(-c3c(F)cc(C(F)F)cc3F)n2)ccc1C` [Compound 87, methyl N-[[5-[1-[4-(difluoromethyl)-2,6-difluorophenyl]-1H-pyrazol-3-yl]-2-methylphenyl]methyl]carbamate] yielded a pest or weed control at 10 ppm [1] of 100% and a pest or weed control at 10 ppm [2] of 100%.

In the case of `COC(=O)NCc1cc(-c2ccn(-c3c(F)cc(OC(F)(F)F)cc3F)n2)ccc1C` [Compound 78, methyl N-[[5-[1-[2,6-difluoro-4-(trifluoromethoxy)phenyl]-1H-pyrazol-3-yl]-2-methylphenyl]methyl]carbamate], the pest or weed control at 10 ppm [1] is reported as 100% and the pest or weed control at 10 ppm [2] is reported as 100%.

`COC(=O)NCc1cc(-c2ccn(-c3c(Cl)cccc3Cl)n2)ccc1C` [Compound 44] gave a pest or weed control at 10 ppm [1] of 100% and a pest or weed control at 10 ppm [2] of 68%.

“methyl N-[[5-[1-(2,6-difluoro-4-methoxyphenyl)-1H-pyrazol-3-yl]-2-methylphenyl]methyl]carbamate [Compound 33]” was tested, and the “Test D disease control rating” value [1] was 100% and the “Test B disease control rating” value [2] was 99%.

`COC(=O)NCc1cc(-c2ccn(-c3c(F)cc(CO)cc3F)n2)ccc1C` [Compound 71, methyl N-[[5-[1-[2,6-difluoro-4-(hydroxymethyl)phenyl]-1H-pyrazol-3-yl]-2-methylphenyl]methyl]carbamate] gave a pest or weed control at 10 ppm [1] of 25% and a pest or weed control at 10 ppm [2] of 0%.

In the case of `C=CCON=C(C)c1cc(F)c(-n2ccc(-c3ccc(C)c(CNC(=O)OC)c3)n2)c(F)c1` [Compound 85], the “Test D disease control rating” value [1] is reported as 98% and the “Test B disease control rating” value [2] is reported as 90%.

In the case of `CCON=C(C)c1cc(F)c(-n2ccc(-c3ccc(C)c(CNC(=O)OC)c3)n2)c(F)c1` [Compound 84], the “Test D disease control rating” value [1] is reported as 100% and the “Test B disease control rating” value [2] is reported as 100%.

`COC(=O)NCc1cc(-c2ccn(-c3c(F)cc(C4CC4(Cl)Cl)cc3F)n2)ccc1C` (centres unmarked) [Compound 88] was tested, and the “Test D disease control rating” value [1] was 100% and the “Test B disease control rating” value [2] was 100%.

`COC(=O)NCc1cc(-c2ccn(-c3c(F)cc(C(C)=NO)cc3F)n2)ccc1C` [Compound 69] was tested, and the “Test D disease control rating” value [1] was 97% and the “Test B disease control rating” value [2] was 99%.

For `COC(=O)NCc1cc(-c2ccn(-c3c(F)cc(OCC4CC4)cc3F)n2)ccc1C` [Compound 9], the “Test D disease control rating” value [1] was 99% and the “Test B disease control rating” value [2] was 99%.

For `COC(=O)NCc1cc(-c2ccn(-c3c(Cl)cc([N+](=O)[O-])cc3Cl)n2)ccc1C` [Compound 54], the pest or weed control at 10 ppm [1] was 0% and the pest or weed control at 10 ppm [2] was 0%.

In the case of `C=C(C)c1cc(Br)c(-n2ccc(-c3ccc(C)c(CNC(=O)OC)c3)n2)c(Br)c1` [Compound 137], the “Test D disease control rating” value [1] is reported as 77% and the “Test B disease control rating” value [2] is reported as 0%.

`COC(=O)NCc1cc(-c2ccn(-c3c(F)cc(F)cc3SC)n2)ccc1C` [Compound 19] gave a pest or weed control at 10 ppm [1] of 81% and a pest or weed control at 10 ppm [2] of 0%.

`COC(=O)NCc1cc(-c2ccn(-c3c(Cl)cccc3I)n2)ccc1C` [Compound 59] showed a pest or weed control at 10 ppm [1] of 87% and a pest or weed control at 10 ppm [2] of 45%.

With `COC(=O)NCc1cc(-c2ccn(-c3c(Cl)cc(C(C)C)cc3Cl)n2)ccc1C` [Compound 135] the pest or weed control at 10 ppm [1] was 100% and the pest or weed control at 10 ppm [2] was 86%.

`COC(=O)NCc1cc(-c2ccn(-c3c(F)cc(OC(F)(F)C(F)F)cc3F)n2)ccc1C` [Compound 29] was tested, and the “Test D disease control rating” value [1] was 100% and the “Test B disease control rating” value [2] was 100%.

`COC(=O)NCc1cc(-c2cnn(-c3c(F)cc(CC(C)C)cc3F)n2)ccc1C` [Compound 109] gave a pest or weed control at 10 ppm [1] of 100% and a pest or weed control at 10 ppm [2] of 91%.

Compound `CON=C(C)c1cc(F)c(-n2ccc(-c3ccc(C)c(CNC(=O)OC)c3)n2)c(F)c1` [Compound 83, methyl N-[[5-[1-[2,6-difluoro-4-[1-(methoxyimino)ethyl]phenyl]-1H-pyrazol-3-yl]-2-methylphenyl]methyl]carbamate] has a pest or weed control at 10 ppm [1] of 100% and a pest or weed control at 10 ppm [2] of 100%.

With `COC(=O)NCc1cc(-c2ccn(-c3c(F)cc(C=NO)cc3F)n2)ccc1C` [Compound 72] the “Test D disease control rating” value [1] was 77% and the “Test B disease control rating” value [2] was 100%.

`COC(=O)NCc1cc(-c2ccn(-c3c(F)cc(SC(C)(C)C)cc3F)n2)ccc1C` [Compound 42, methyl N-[[5-[1-[4-[(1,1-dimethylethyl)thio]-2,6-difluorophenyl]-1H-pyrazol-3-yl]-2-methylphenyl]methyl]carbamate] gave a pest or weed control at 10 ppm [1] of 73% and a pest or weed control at 10 ppm [2] of 100%.

For `COC(=O)NCc1cc(-c2ccn(-c3c(F)cc(CF)cc3F)n2)ccc1C` [Compound 77], the pest or weed control at 10 ppm [1] was 100% and the pest or weed control at 10 ppm [2] was 100%.

Compound `COC(=O)NCc1cc(-c2ccn(-c3c(F)cc(SC)cc3F)n2)ccc1C` [Compound 27] has a pest or weed control at 10 ppm [1] of 100% and a pest or weed control at 10 ppm [2] of 99%.

`COC(=O)NCc1cc(-c2ccn(-c3c(F)cc(N)cc3Cl)n2)ccc1C` [Compound 39] showed a pest or weed control at 10 ppm [1] of 0% and a pest or weed control at 10 ppm [2] of 0%.

For `COC(=O)NCc1cc(-c2ccn(-c3c(F)cc(OC4CC(F)(F)C4)cc3F)n2)ccc1C` [Compound 98], the “Test D disease control rating” value [1] was 100% and the “Test B disease control rating” value [2] was 99%.

In the case of `C=C(C)c1cc(F)c(-n2ccc(-c3ccc(C)c(CNC(=O)OC)c3)n2)c(F)c1` [Compound 62], the “Test D disease control rating” value [1] is reported as 100% and the “Test B disease control rating” value [2] is reported as 99%.

`COC(=O)NCc1cc(-c2ccn(-c3c(C)cc([N+](=O)[O-])cc3C)n2)ccc1C` [Compound 35] gave a pest or weed control at 10 ppm [1] of 0% and a pest or weed control at 10 ppm [2] of 0%.

`C=CCON=Cc1cc(F)c(-n2ccc(-c3ccc(C)c(CNC(=O)OC)c3)n2)c(F)c1` [Compound 81] was tested, and the “Test D disease control rating” value [1] was 100% and the “Test B disease control rating” value [2] was 92%.

Compound `COC(=O)NCc1cc(-c2ccn(-c3c(F)cc(OCF)cc3F)n2)ccc1C` [Compound 73] has a pest or weed control at 10 ppm [1] of 100% and a pest or weed control at 10 ppm [2] of 100%.

Work on `COC(=O)NCc1cc(-c2ccn(-c3c(F)cc(O)cc3F)n2)ccc1C` [Compound 10, methyl N-[[5-[1-(2,6-difluoro-4-hydroxyphenyl)-1H-pyrazol-3-yl]-2-methylphenyl]methyl]carbamate] yielded a pest or weed control at 10 ppm [1] of 0% and a pest or weed control at 10 ppm [2] of 0%.

`COC(=O)NCc1cc(-c2ccn(-c3c(F)cc(I)cc3SC)n2)ccc1C` [Compound 26] was tested, and the pest or weed control at 10 ppm [1] was 87% and the pest or weed control at 10 ppm [2] was 73%.

Compound `COC(=O)NCc1cc(-c2ccn(-c3c(F)cc(C4CC4)cc3F)n2)ccc1C` [Compound 41, methyl N-[[5-[1-(4-cyclopropyl-2,6-difluorophenyl)-1H-pyrazol-3-yl]-2-methylphenyl]methyl]carbamate] has a pest or weed control at 10 ppm [1] of 100% and a pest or weed control at 10 ppm [2] of 100%.

For `COC(=O)NCc1cc(-c2ccn(-c3c(F)cc(Br)cc3F)n2)ccc1C` [Compound 7, methyl N-[[5-[1-(4-bromo-2,6-difluorophenyl)-1H-pyrazol-3-yl]-2-methylphenyl]methyl]carbamate], the pest or weed control at 10 ppm [1] was 100% and the pest or weed control at 10 ppm [2] was 100%.

For `COC(=O)NCc1cc(-c2ccn(-c3c(F)cc(OC4CCCC4)cc3F)n2)ccc1C` [Compound 90], the “Test D disease control rating” value [1] was 100% and the “Test B disease control rating” value [2] was 86%.

Work on `COC(=O)NCc1cc(-c2ccn(-c3c(Cl)cc(Cl)cc3Cl)n2)ccc1C` [Compound 57] yielded a pest or weed control at 10 ppm [1] of 100% and a pest or weed control at 10 ppm [2] of 74%.

Work on `CNc1cc(F)c(-n2ccc(-c3ccc(C)c(CNC(=O)OC)c3)n2)c(F)c1` [Compound 36] yielded a pest or weed control at 10 ppm [1] of 100% and a pest or weed control at 10 ppm [2] of 68%.

`C#Cc1cc(F)c(-n2ccc(-c3ccc(C)c(CNC(=O)OC)c3)n2)c(F)c1` [Compound 53, methyl N-[[5-[1-(4-ethynyl-2,6-difluorophenyl)-1H-pyrazol-3-yl]-2-methylphenyl]methyl]carbamate] showed a pest or weed control at 10 ppm [1] of 100% and a pest or weed control at 10 ppm [2] of 100%.

Work on `COC(=O)NCc1cc(-c2cn(-c3c(OC)cc(OC)cc3OC)nn2)ccc1C` [Compound 127] yielded a pest or weed control at 10 ppm [1] of 0% and a pest or weed control at 10 ppm [2] of 0%.

`COC(=O)NCc1cc(-c2ccn(-c3c(F)cc(OC(C)C)cc3F)n2)ccc1C` [Compound 14, methyl N-[[5-[1-[2,6-difluoro-4-(1-methylethoxy)phenyl]-1H-pyrazol-3-yl]-2-methylphenyl]methyl]carbamate] gave a pest or weed control at 10 ppm [1] of 100% and a pest or weed control at 10 ppm [2] of 100%.

With `CON=C(C)c1cc(F)c(-n2ccc(-c3ccc(C)c(CNC(=O)OC)c3)n2)c(F)c1` [Compound 99] the “Test D disease control rating” value [1] was 100% and the “Test B disease control rating” value [2] was 100%.

`COC(=O)NCc1cc(-c2ccn(-c3c(F)cccc3I)n2)ccc1C` [Compound 45] showed a pest or weed control at 10 ppm [1] of 100% and a pest or weed control at 10 ppm [2] of 0%.

For `COC(=O)NCc1cc(-c2ccn(-c3c(F)cc(C=O)cc3F)n2)ccc1C` [Compound 67, methyl N-[[5-[1-(2,6-difluoro-4-formylphenyl)-1H-pyrazol-3-yl]-2-methylphenyl]methyl]carbamate], the pest or weed control at 10 ppm [1] was 12% and the pest or weed control at 10 ppm [2] was 0%.

`COC(=O)NCc1cc(-c2ccn(-c3c(F)cc(OCC(F)(F)F)cc3F)n2)ccc1C` [Compound 22] gave a pest or weed control at 10 ppm [1] of 100% and a pest or weed control at 10 ppm [2] of 99%.

In the case of `COC(=O)NCc1cc(-c2ccn(-c3c(F)cc(C(C)=NOC(C)C)cc3F)n2)ccc1C` [Compound 86], the “Test D disease control rating” value [1] is reported as 100% and the “Test B disease control rating” value [2] is reported as 99%.
